Test results from US20260285850A1, “SUBSTITUTED OXAZOLIDINONES AND IMIDAZOLINONES AS HERBICIDES” (FMC CORPORATION, priority 2023, published 2026).

Experiments:
Type in all cases: in vivo
[1] = system: barnyardgrass (Echinochloa crus-galli); test: Test A postemergence application, visual injury rating 0-100; conditions: Postemergence
Procedure, shortened: (§1)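 Compounds formulated in a non-phytotoxic solvent with surfactant are sprayed onto soil of freshly planted loam-sand pots ahead of emergence, or onto emerged plants 2-10 cm tall. After a 10-day greenhouse period, each species is scored visually for injury against untreated controls.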

[2] = system: corn (Zea mays); test: as above; conditions: Postemergence
Procedure, shortened: as §1

[3] = system: blackgrass (Alopecurus myosuroides); test: as above; conditions: Postemergence
Procedure, shortened: as §1

[4] = system: oat, wild (wild oat, Avena fatua); test: as above; conditions: Postemergence
Procedure, shortened: as §1

[5] = system: galium (catchweed bedstraw, Galium aparine); test: as above; conditions: Postemergence
Procedure, shortened: as §1

[6] = system: palmer (palmer amaranth, palmer pigweed, Amaranthus palmeri); test: as above; conditions: Postemergence
Procedure, shortened: as §1

[7] = system: green foxtail (Setaria viridis); test: as above; conditions: Postemergence
Procedure, shortened: as §1

[8] = system: horseweed (Erigeron canadensis); test: as above; conditions: Postemergence
Procedure, shortened: as §1

[9] = system: kochia (Bassia scoparia); test: as above; conditions: Postemergence
Procedure, shortened: as §1

[10] = system: wheat (Triticum aestivum); test: as above; conditions: Postemergence
Procedure, shortened: as §1

[11] = system: ryegrass, Italian (italian ryegrass, Lolium multiflorum); test: as above; conditions: Postemergence
Procedure, shortened: as §1

[12] = system: soybean (Glycine max); test: as above; conditions: Postemergence
Procedure, shortened: as §1

[13] = system: ragweed (common ragweed, Ambrosia artemisiifolia); test: as above; conditions: Postemergence
Procedure, shortened: as §1

[14] = system: barnyardgrass (Echinochloa crus-galli); test: Test A preemergence soil spray, visual injury rating 0-100; conditions: 0 to 100 scale, 10 days
Procedure, shortened: as §1

[15] = system: corn (Zea mays); test: as above; conditions: 0 to 100 scale, 10 days
Procedure, shortened: as §1

[16] = system: blackgrass (Alopecurus myosuroides); test: as above; conditions: 0 to 100 scale, 10 days
Procedure, shortened: as §1

[17] = system: oat, wild (wild oat, Avena fatua); test: as above; conditions: 0 to 100 scale, 10 days
Procedure, shortened: as §1

[18] = system: palmer (palmer amaranth, palmer pigweed, Amaranthus palmeri); test: as above; conditions: 0 to 100 scale, 10 days
Procedure, shortened: as §1

[19] = system: green foxtail (Setaria viridis); test: as above; conditions: 0 to 100 scale, 10 days
Procedure, shortened: as §1

[20] = system: kochia (Bassia scoparia); test: as above; conditions: 0 to 100 scale, 10 days
Procedure, shortened: as §1

[21] = system: wheat (Triticum aestivum); test: as above; conditions: 0 to 100 scale, 10 days
Procedure, shortened: as §1

[22] = system: ryegrass, Italian (italian ryegrass, Lolium multiflorum); test: as above; conditions: 0 to 100 scale, 10 days
Procedure, shortened: as §1

[23] = system: soybean (Glycine max); test: as above; conditions: 0 to 100 scale, 10 days
Procedure, shortened: as §1

[24] = system: ragweed (common ragweed, Ambrosia artemisiifolia); test: as above; conditions: 0 to 100 scale, 10 days
Procedure, shortened: as §1

[25] = system: sedge, umbrella (small-flower umbrella sedge, Cyperus difformis); test: Test B flooded paddy test, visual plant response rating 0-100; conditions: 250 g ai/ha, Flood, applied to paddy water, evaluated after 13 days
Procedure, shortened: (§2)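 Plants were grown to the 2-leaf stage, then pots were flooded to 3 cm above the soil and test compounds were applied directly into the paddy water. Water depth was held there throughout; after 13 days in a greenhouse, injury was scored visually against untreated controls.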

[26] = system: ducksalad (Heteranthera limosa); test: as above; conditions: 250 g ai/ha, Flood, applied to paddy water, evaluated after 13 days
Procedure, shortened: as §2

[27] = system: rice (Oryza sativa); test: as above; conditions: 250 g ai/ha, Flood, applied to paddy water, evaluated after 13 days
Procedure, shortened: as §2

[28] = system: barnyardgrass (Echinochloa crusgalli); test: as above; conditions: 250 g ai/ha, Flood, applied to paddy water, evaluated after 13 days
Procedure, shortened: as §2

[29] = 8 g ai/ha, 10 days, 0 is no effect, 100 is complete control
[30] = 31 g ai/ha, greenhouse 10 days, 0 no effect, 100 complete control

CC1(C(=O)NC2C=CC(C(=O)NS(=O)(=O)C3CC3)C2)CN(c2cc(F)cc(F)c2)C(=O)O1 (stereo not shown) [Compound 87]
Barnyardgrass plant response rating (0 to 100 scale) [1, 29]: 50
Barnyardgrass plant response rating (0 to 100 scale) [1, 30]: 100
Corn plant response rating (0 to 100 scale) [2, 29]: 0
Corn plant response rating (0 to 100 scale) [2, 30]: 80
Blackgrass plant response rating (0 to 100 scale) [3, 29]: 0
Blackgrass plant response rating (0 to 100 scale) [3, 30]: 30
Oat, Wild plant response rating (0 to 100 scale) [4, 29]: 20
Oat, Wild plant response rating (0 to 100 scale) [4, 30]: 90
Galium plant response rating (0 to 100 scale) [5, 29]: 50
Galium plant response rating (0 to 100 scale) [5, 30]: 70
Pigweed, Palmer plant response rating (0 to 100 scale) [6, 29]: 30
Amaranth, Palmer / Pigweed, Palmer plant response rating (0 to 100 scale) [6, 30]: 70
Foxtail, Green plant response rating (0 to 100 scale) [7, 29]: 0
Foxtail, Green plant response rating (0 to 100 scale) [7, 30]: 40
Horseweed plant response rating (0 to 100 scale) [8, 29]: 20
Horseweed plant response rating (0 to 100 scale) [8, 30]: 30
Kochia plant response rating (0 to 100 scale) [9, 29]: 30
Kochia plant response rating (0 to 100 scale) [9, 30]: 80
Wheat plant response rating (0 to 100 scale) [10, 29]: 0
Wheat plant response rating (0 to 100 scale) [10, 30]: 100
Ryegrass, Italian plant response rating (0 to 100 scale) [11, 29]: 20
Ryegrass, Italian plant response rating (0 to 100 scale) [11, 30]: 50
Soybean plant response rating (0 to 100 scale) [12, 29]: 20
Soybean plant response rating (0 to 100 scale) [12, 30]: 50
Ragweed plant response rating (0 to 100 scale) [13, 29]: 10
Ragweed plant response rating (0 to 100 scale) [13, 30]: 50
Barnyardgrass plant response rating ([14]; 8 g ai/ha): 0
Barnyardgrass plant response rating ([14]; 31 g ai/ha): 90
Corn plant response rating ([15]; 8 g ai/ha): 0
Corn plant response rating ([15]; 31 g ai/ha): 0
Blackgrass plant response rating ([16]; 8 g ai/ha): 10
Blackgrass plant response rating ([16]; 31 g ai/ha): 20
Oat, Wild plant response rating ([17]; 8 g ai/ha): 0
Oat, Wild plant response rating ([17]; 31 g ai/ha): 0
Pigweed, Palmer plant response rating ([18]; 8 g ai/ha): 10
Amaranth, Palmer (Pigweed, Palmer) plant response rating ([18]; 31 g ai/ha): 90
Foxtail, Green plant response rating ([19]; 8 g ai/ha): 30
Foxtail, Green plant response rating ([19]; 31 g ai/ha): 20
Kochia plant response rating ([20]; 8 g ai/ha): 0
Kochia plant response rating ([20]; 31 g ai/ha): 10
Wheat plant response rating ([21]; 8 g ai/ha): 0
Wheat plant response rating ([21]; 31 g ai/ha): 20
Ryegrass, Italian plant response rating ([22]; 8 g ai/ha): 0
Ryegrass, Italian plant response rating ([22]; 31 g ai/ha): 30
Soybean plant response rating ([23]; 8 g ai/ha): 0
Soybean plant response rating ([23]; 31 g ai/ha): 0
Ragweed plant response rating ([24]; 8 g ai/ha): 10
Ragweed plant response rating ([24]; 31 g ai/ha): 10
Plant response rating, Sedge, Umbrella (0 to 100 scale, 0 is no effect and 100 is complete control) [25]: 0
Plant response rating, Ducksalad (0 to 100 scale, 0 is no effect and 100 is complete control) [26]: 0
Plant response rating, Rice (0 to 100 scale, 0 is no effect and 100 is complete control) [27]: 0
Plant response rating, Barnyardgrass (0 to 100 scale, 0 is no effect and 100 is complete control) [28]: 0
